Legend:
SNU-16 = assay: Cell SNU-16 assay; type: cell-based
FGFR2 = FGFR2 (Homo sapiens (Human), UniProt P21802); assay: Biochemical FGFR2 Caliper assay
[1] = Homo sapiens, SNU-16, SNU-16 cells

Chain of FGFR2 (P21802 22-821): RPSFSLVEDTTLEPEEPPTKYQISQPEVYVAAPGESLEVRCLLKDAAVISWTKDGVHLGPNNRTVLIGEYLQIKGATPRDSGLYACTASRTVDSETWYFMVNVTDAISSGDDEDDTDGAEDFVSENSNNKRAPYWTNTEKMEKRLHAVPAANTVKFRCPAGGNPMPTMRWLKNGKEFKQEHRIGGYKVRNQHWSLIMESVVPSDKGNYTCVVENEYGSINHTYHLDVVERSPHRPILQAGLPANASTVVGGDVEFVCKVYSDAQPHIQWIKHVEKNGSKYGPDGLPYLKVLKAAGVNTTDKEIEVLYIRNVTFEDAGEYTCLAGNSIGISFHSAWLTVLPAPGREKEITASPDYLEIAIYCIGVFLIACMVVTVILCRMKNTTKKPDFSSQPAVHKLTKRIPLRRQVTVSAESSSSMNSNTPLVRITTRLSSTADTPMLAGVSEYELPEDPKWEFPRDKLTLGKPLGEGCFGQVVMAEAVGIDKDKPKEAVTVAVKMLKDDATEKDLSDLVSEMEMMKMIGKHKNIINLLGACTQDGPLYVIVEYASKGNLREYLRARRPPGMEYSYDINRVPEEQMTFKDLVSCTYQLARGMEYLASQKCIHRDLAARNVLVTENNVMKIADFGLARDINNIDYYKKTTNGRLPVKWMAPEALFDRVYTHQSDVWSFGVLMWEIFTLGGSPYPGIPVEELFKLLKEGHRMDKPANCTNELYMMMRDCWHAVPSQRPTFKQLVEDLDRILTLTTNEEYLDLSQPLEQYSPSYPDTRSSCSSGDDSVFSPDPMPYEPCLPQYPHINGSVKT

Row | IC50 (SNU-16; [1]) [nM] | IC50 (FGFR2) [nM] | IC50 (SNU-16; SNU-16 cells) [nM] | SMILES
1 | 100 to 250 | 250 to 1000 |  | COCC#Cc1cc(C)c(-c2c(-c3ccc(Oc4nccc(C)n4)c(F)c3)c3c(C)ncnc3n2C)cn1 [Example 1374]
2 | 250 to 1000 | 100 to 250 |  | C=C(C)C(=O)Nc1ccc(-c2c(-c3ccc(-n4cc(C)cn4)nc3)c3c(N)ncnc3n2C(C)C)cc1 [Example 1151]
3 | ≤ 100 | < 100 |  | C=C(C)C(=O)Nc1cnc(-c2c(-c3ccc(Oc4cccc(C)n4)c(F)c3)c3c(N)ncnc3n2C)c(C)c1 [Example 1095]
4 | 250 to 1000 | 250 to 1000 |  | C=C(C)C(=O)Nc1ccc(-c2c(C3=CCN(C(=O)C4CCCC4)CC3)c3c(N)ncnc3n2C)cc1 [Example 922]
5 |  | 1000 to 100000 | 1000 to 100000 | C=CC(=O)N1CC(c2c(-c3ccc(C(=O)c4nccc(C)n4)cc3F)c3c(N)ncnc3n2C)C[C@@H]1C (stereo partly shown) [Example 885]
6 | ≤ 100 | < 100 |  | C#Cc1cc(Cl)c(-c2c(-c3ccc(Oc4nccc(C)n4)c(F)c3)c3c(N)ncnc3n2C)cn1 [Example 1250]
7 | 1000 to 100000 | 1000 to 100000 |  | C=C(C)C(=O)Nc1ccc(-c2c(-c3coc4ccccc34)c3c(N)ncnc3n2C)cc1 [Example 1273]
8 | 1000 to 100000 | 1000 to 100000 |  | C=C(C)C(=O)Nc1ccc(-c2oc3ncnc(N)c3c2-c2ccc(Oc3cccc(C)n3)cc2)cc1 [Example 802]
9 | ≤ 100 | < 100 |  | C=CC(=O)Nc1ccc(-c2c(-c3ccc4[nH]ccc4c3)c3c(N)ncnc3n2C)cc1 [Example 1148]
10 | 250 to 1000 | 1000 to 100000 |  | C=CC(=O)N1CC=C(c2ccc(-c3c(-c4ccc(Oc5cccc(C)n5)cc4)c4c(N)ncnc4n3C)cc2)C1 [Example 989]
11 | 1000 to 100000 | 1000 to 100000 |  | C=C(C)C(=O)Nc1ccc(-c2c(-c3ccc(-c4noc(C)n4)cc3)c3c(N)ncnc3n2C)cc1 [Example 1145]
12 | ≤ 100 | < 100 |  | C#Cc1cc(C)c(-c2c(C3=CC[C@@H](C(=O)N4CCCC4)CC3)c3c(N)ncnc3n2C)cn1 (single isomer, unassigned) [Example 1142]
13 | 1000 to 100000 | 1000 to 100000 |  | C=C(C)C(=O)Nc1ccc(-c2c(-c3ccc4nccn4c3)c3c(N)ncnc3n2C)cc1 [Example 1345]
14 | 1000 to 100000 | 100 to 250 |  | C=C1CCc2ccc(-c3c(-c4ccc(Oc5nccc(C)n5)cc4)c4c(N)ncnc4n3C)cc2C1=O [Example 1242]
15 | ≤ 100 | < 100 |  | C#Cc1cc(C)c(-c2c(-c3ccc(C(=O)N4CCC[C@@H]4C#C)cc3)c3c(N)ncnc3n2C)cn1 [Example 1187]
16 | ≤ 100 | < 100 |  | C#Cc1cc(C)c(-c2c(C3=CC[C@]4(CC3)Cc3ccc(C)nc3C4=O)c3c(N)ncnc3n2C)cn1 [Example 1398]
17 | ≤ 100 | < 100 |  | C=C(C)C(=O)Nc1ccc(-c2c(-c3ccc(-c4ccnn4C)nc3)c3c(N)ncnc3n2C)cc1 [Example 1155]
18 | 100 to 250 | 100 to 250 |  | C=C(C)C(=O)Nc1ccc(-c2c(C3=CC[C@@H](C(=O)N4CCC[C@H]4C)CC3)c3c(N)ncnc3n2C)cc1 [Example 1008]
19 | 1000 to 100000 | 1000 to 100000 |  | C=C(C)C(=O)Nc1ccc(-c2c(-c3ccc(C(=O)NCC4CCC4)c(OC)c3)c3c(N)ncnc3n2C)cc1 [Example 1046]
20 | ≤ 100 | < 100 |  | C#Cc1cc(C)c(-c2c(C3=CC[C@H](C(=O)N4CCC[C@H]4C)CC3)c3c(N)ncnc3n2C)c(F)n1 [Example 1319]
21 | ≤ 100 | < 100 |  | C=CC(=O)Nc1ccc(-c2c(-c3ccc(C(=O)NCC(C)C)cc3)c3c(N)ncnc3n2C)cc1 [Example 990]
22 | 250 to 1000 | 1000 to 100000 |  | C=CC(=C)Nc1ccc(-c2c(-c3cnn(C)c3)c3c(N)ncnc3n2C)c(C)c1 [Example 1132]
23 | 100 to 250 | < 100 |  | C#Cc1cc(C)c(-c2c(C3=CC[C@]4(CC3)Cc3ccc(C)nc3O4)c3c(N)ncnc3n2C)cn1 [Example 1399]
24 | 1000 to 100000 | 1000 to 100000 |  | C=C(C)C(=O)Nc1ccc(-c2c(C3=CC[C@@]4(CC3)Cc3ccc(C)nc3C4=O)c3c(N)ncnc3n2C)cc1 (single isomer, unassigned) [Example 1366]
25 | ≤ 100 | < 100 |  | C#Cc1cc(N(C)C)c(-c2c(-c3ccc(Oc4nccc(C)n4)c(F)c3)c3c(N)ncnc3n2C)cn1 [Example 1458]

Row | IC50 (SNU-16; [1]) [nM] | IC50 (FGFR2) [nM] | IC50 (SNU-16; SNU-16 cells) [nM] | SMILES
26 | 100 to 250 | 250 to 1000 |  | C=CC(=O)NCc1cccc(-c2c(-c3ccc(Oc4cccc(C)n4)cc3)c3c(N)ncnc3n2C)c1 [Example 1005]
27 | ≤ 100 | < 100 |  | C#Cc1cc(C)c(-c2c(-c3ccc(Oc4nccc(C)n4)c(Cl)c3)c3c(N)ncnc3n2C)cn1 [Example 1263]
28 | ≤ 100 | < 100 |  | C=C1CN(c2ccc(-c3c(-c4ccc(Oc5nccc(C)n5)cc4)c4c(N)ncnc4n3C)cc2)C1=O [Example 1109]
29 | ≤ 100 | < 100 |  | C#Cc1cc(C)c(-c2c(C3=CC[C@H](C(=O)N4CCCC4)CC3)c3c(N)ncnc3n2C)cn1 [Example 1111]
30 | 250 to 1000 | 100 to 250 |  | C=C(C)C(=O)Nc1ccc(-c2c(-c3ccc(Oc4cccc(C)n4)cc3)c3c(N)ncnn3c2C#N)cc1 [Example 824]
31 | 250 to 1000 | 250 to 1000 |  | C=C(C)C(=O)Nc1ccc(-c2c(-c3ccc(C(=O)N[C@H]4C[C@@H](F)C4)c(OC(F)F)c3)c3c(N)ncnc3n2C)cc1 [Example 971]
32 | ≤ 100 | < 100 |  | C#Cc1ncc(-c2c(C3=CC[C@H](C(=O)N4CCCC4)CC3)c3c(N)ncnc3n2C)c(C)c1F (single isomer, unassigned) [Example 1330]
33 | ≤ 100 | < 100 |  | C=CC(=O)N1CC(CO)C(c2c(-c3ccc(Oc4cccc(C)n4)cc3)c3c(N)ncnc3n2C)C1 (stereo not shown) [Example 814]
34 | ≤ 100 | < 100 |  | C#Cc1ncc(-c2c(-c3ccc(C(=O)NCC(C)C)c(F)c3)c3c(N)ncnc3n2C)c(C)c1F [Example 1261]
35 | 1000 to 100000 | 1000 to 100000 |  | C=C(C)C(=O)Nc1ccc(-c2c(-c3cccc(N)c3)c3c(N)ncnc3n2C)cc1 [Example 1299]
36 | ≤ 100 | < 100 |  | C=C(C)C(=O)Nc1ccc(-c2c(C3=CC[C@@H](C(=O)N4CCCC45COC5)CC3)c3c(N)ncnc3n2C)c(C)c1 (single isomer, unassigned) [Example 1033]
37 | ≤ 100 | 250 to 1000 |  | C#Cc1ncc(-c2c(-c3ccc(Oc4nccc(C)n4)c(F)c3)c3c(C)ncnc3n2C)c(C)c1OC [Example 1397]
38 | 250 to 1000 | 1000 to 100000 |  | C#Cc1ccc(-c2c(C3=CC[C@@H](C(=O)N4CCCC4)CC3)c3cncnc3n2C)c(C)n1 (single isomer, unassigned) [Example 1208]
39 |  | 1000 to 100000 | 1000 to 100000 | C=C(C)C(=O)Nc1ccc(-c2c(C3=CC[C@@](C)(C(=O)N4CCCC4)CC3)c3c(N)ncnc3n2C)cc1 [Example 1025]
40 | 1000 to 100000 | 1000 to 100000 |  | C=C(C)C(=O)Nc1ccc(-c2c(-c3ccn4ncnc4c3)c3c(N)ncnc3n2C)cc1 [Example 1350]
41 | 100 to 250 | 250 to 1000 |  | C=C(C)C(=O)Nc1ccc(-c2c(C3=CC[C@@H](C(=O)N4CC5CC4C5)CC3)c3c(N)ncnc3n2C)cc1 [Example 996]
42 | ≤ 100 | < 100 |  | C=CC(=O)Nc1ccc(-c2c(-c3ccc(O)cc3)c3c(N)ncnc3n2C)cc1 [Example 1120]
43 | ≤ 100 | < 100 |  | C=C(C)c1nc(-c2ccc(-c3c(-c4ccccc4)c4c(N)ncnc4n3C)cc2)no1 [Example 1172]
44 | ≤ 100 | < 100 |  | C=C(CN(C)C)C(=O)Nc1ccc(-c2c(-c3ccc(C(=O)NCC4(F)COC4)cc3)c3c(N)ncnc3n2C)cc1 [Example 1044]
45 | ≤ 100 | 100 to 250 |  | C=C(C)C(=O)Nc1ccc(-c2c(C3=CC[C@H](C(=O)NC4CCCC4)CC3)c3c(N)ncnc3n2C)cc1 (single isomer, unassigned) [Example 957]
46 | 250 to 1000 | 250 to 1000 |  | C=C(C)C(=O)Nc1ccc(-c2c(-c3cnc(-c4cccc(C)c4)s3)c3c(N)ncnc3n2C)cc1 [Example 1423]
47 | 250 to 1000 | 250 to 1000 |  | C=CC(=O)NC(C)(C)c1ccc(-c2c(-c3ccc(Oc4nccc(C)n4)cc3)c3c(N)ncnc3n2C)cc1 [Example 943]
48 | ≤ 100 | < 100 |  | C#Cc1cc(C)c(-c2c(-c3ncc(Oc4nccc(C)n4)cc3F)c3c(N)ncnc3n2C)c(C)n1 (atropisomer, axis not shown) [Example 1453]
49 | ≤ 100 | < 100 |  | C#Cc1ncc(-c2c(-c3ccc(Oc4nccc(C)n4)cn3)c3c(N)ncnc3n2C)c(C)c1F [Example 1328]
50 | 1000 to 100000 | 1000 to 100000 |  | C=Cc1nc2cc(-c3c(-c4ccc(C(=O)N5CCCC5)cc4)c4c(N)ncnc4n3C)ccc2n1C [Example 893]

From patent publication US11780845B2 (Relay Therapeutics, Inc., priority 2019, dated 2023)
